Test results from ChEMBL document CHEMBL1201862, “PubChem BioAssay data set” (2004).
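Five concentrations, 48 hours, 96-well plates. Here, GI50 denotes the concentration required for 50% inhibition of growth.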 The source made the active and inactive calls. Rule as the data show it: active = GI50 up to about 1.1 µM and inactive = higher.

Experiments:
Experiment in all cases: NCI anticancer screen, dose series, 48 h
[1] = test system: SF-295
[2] = test system: HCT-116
[3] = test system: SW-620
[4] = test system: SN12C
[5] = test system: NCI-H226
[6] = test system: NCI-H460
[7] = test system: RPMI-8226
[8] = test system: MDA-MB-231
[9] = test system: NCI-H23
[10] = test system: IGROV-1
[11] = test system: HCC 2998
[12] = test system: MCF7
[13] = test system: EKVX
[14] = test system: SK-MEL-5
[15] = test system: COLO 205
[16] = test system: OVCAR-3
[17] = test system: ACHN
[18] = test system: TK-10
[19] = test system: NCI-H522

Measured: GI50

O=C(Nc1ccccc1Cl)c1cc(S(=O)(=O)Nc2n[nH]c(=O)n2-c2ccccc2)c(S)cc1Cl
inactive: [1] > 100 µM | [2] > 10 µM | [3] > 100 µM | [4] > 100 µM | [5] > 100 µM | [6] > 100 µM | [7] > 100 µM | [8] > 100 µM | [9] > 100 µM | [10] > 100 µM | [11] > 100 µM | [12] > 100 µM | [13] > 100 µM | [14] > 100 µM | [15] > 100 µM | [16] > 100 µM

CSc1ncc2c(C#N)c3sc4ccccc4n3c(=O)c2n1
inactive: [1] > 100 µM | [2] > 100 µM | [3] 22 µM | [17] > 100 µM | [4] > 100 µM | [5] 26.1 µM | [6] 22.4 µM | [7] > 100 µM | [8] 41.1 µM | [9] > 100 µM | [10] > 100 µM | [11] > 100 µM | [12] 16.8 µM | [13] > 100 µM | [14] 64.6 µM | [15] > 100 µM | [18] 61.1 µM | [16] > 100 µM

CCOC(CI)O[C@@H]1C=C[C@H](OC(C)=O)C1 (stereo partly drawn)
inactive: [1] > 100 µM | [2] > 100 µM | [3] > 100 µM | [17] > 100 µM | [4] > 100 µM | [5] > 100 µM | [6] > 100 µM | [7] > 100 µM | [8] > 100 µM | [9] > 100 µM | [11] > 100 µM | [12] > 100 µM | [13] > 100 µM | [15] > 100 µM | [16] 33.7 µM

CN(C)c1ccc(/C=C2\N=C(c3ccccc3)N(c3nc4c(Cl)cc(Cl)cc4s3)C2=O)cc1
inactive: [1] 93.8 µM | [2] 35.2 µM | [3] 46.6 µM | [17] 59 µM | [4] 44 µM | [6] 27.7 µM | [7] 14.9 µM | [8] 29.7 µM | [10] 41 µM | [11] 45.2 µM | [12] 31.6 µM | [13] 21.8 µM | [14] 41.8 µM | [15] 55.8 µM | [18] 85.7 µM | [16] 64.4 µM

N#C/C(C(=S)NCc1ccccc1)=C(/N)N1CCCC1
inactive: [1] > 100 µM | [2] > 100 µM | [3] > 100 µM | [17] > 100 µM | [4] > 100 µM | [5] > 100 µM | [6] > 100 µM | [19] > 100 µM | [7] > 100 µM | [8] > 100 µM | [9] > 100 µM | [10] > 100 µM | [11] > 100 µM | [13] > 100 µM | [14] > 100 µM | [15] > 100 µM | [18] > 100 µM | [16] > 100 µM

C[C@@H]1C(=O)O[C@H]1[C@H](O)CO
inactive: [1] > 100 µM | [2] > 100 µM | [3] > 100 µM | [17] > 100 µM | [4] > 100 µM | [6] > 100 µM | [7] 94.2 µM | [9] > 100 µM | [11] > 100 µM | [12] > 100 µM | [13] > 100 µM | [14] > 100 µM | [15] > 100 µM | [18] > 100 µM | [16] > 100 µM

CC(C)(C)OC(=O)n1c2ccccc2c2c(=O)nc(N3CCCCC3)sc21
inactive: [1] > 100 µM | [3] > 100 µM | [17] > 100 µM | [4] > 100 µM | [6] 65.2 µM | [19] > 100 µM | [7] > 100 µM | [8] > 100 µM | [9] > 100 µM | [10] > 100 µM | [13] > 100 µM | [14] > 100 µM | [15] > 100 µM | [18] > 100 µM | [16] > 100 µM

O=C(Cn1c(C(=O)/C=C/c2ccc(Cl)c(Cl)c2)nc2ccccc21)c1ccccc1
inactive: [2] 15.9 µM | [3] 33.3 µM | [17] 28 µM | [4] 16 µM | [5] 31.7 µM | [6] 16.2 µM | [7] 23.8 µM | [8] 22.7 µM | [9] 31.6 µM | [10] 22.6 µM | [11] 17.8 µM | [12] 26.9 µM | [13] 14.4 µM | [14] 16.9 µM | [15] 17.8 µM | [18] 27.9 µM | [16] 15.2 µM

NC(=S)NNC(=S)NC(=O)c1ccco1
inactive: [2] > 10 µM | [3] > 10 µM | [17] > 10 µM | [4] > 10 µM | [5] > 10 µM | [6] > 10 µM | [7] > 10 µM | [8] > 10 µM | [9] > 10 µM | [10] > 10 µM | [11] > 10 µM | [13] > 10 µM | [14] > 10 µM | [16] > 10 µM

COc1ccc(C(=O)c2sc(N(C)C)nc2-c2ccccc2)cc1
inactive: [2] 31 µM | [3] 30.9 µM | [17] 33.7 µM | [4] 39.6 µM | [5] 67.5 µM | [6] 20.2 µM | [7] 33 µM | [8] 33.7 µM | [9] 34.5 µM | [10] 42.6 µM | [11] 18.2 µM | [12] 21.6 µM | [14] 34 µM | [15] 33.7 µM | [18] 37.9 µM | [16] 16.8 µM

CC(C)(C)N/C(N)=N/C#N
inactive: [2] > 100 µM | [3] > 100 µM | [17] > 100 µM | [4] > 100 µM | [6] > 100 µM | [7] > 100 µM | [8] > 100 µM | [9] > 100 µM | [10] > 100 µM | [11] > 100 µM | [12] > 100 µM | [13] > 100 µM | [14] > 100 µM | [15] > 100 µM | [18] > 100 µM

CC1=C(C)C(=O)C2=C(OCCO2)C1=O
inactive: [1] 18.1 µM | [2] 3.73 µM | [3] 20.6 µM | [17] 25.2 µM | [4] 20 µM | [5] 24.3 µM | [6] 20.6 µM | [7] 2.34 µM | [8] 4.47 µM | [9] 18.2 µM | [10] 2.11 µM | [11] 19.5 µM | [12] 24.5 µM | [13] 15.1 µM | [14] 16 µM | [15] 17.6 µM | [18] 16.9 µM | [16] 10.3 µM
